Data: patent publication US11564923B2, “Compounds and pharmaceutical compositions thereof for the treatment of inflammatory disorders” (Galapagos NV, priority 2017, dated 2023)

Columns and labels:
[1] = test system: IL-12 activation of STAT4 in NK-92 cells; assay: IL-12 activation of STAT4 in NK-92 cells using AphaLISA SureFire technology; format: cell-based; conditions: Homo sapiens, NK92; IL-12 activation of STAT4 in NK-92 cells, AlphaLISA SureFire; average IC50; read-out: IL12 pSTAT4 IC50
Method in brief: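 NK-92 cells, starved of rhIL-2 overnight, were stimulated with rhIL-12 for 30 min at 37 °C with test compounds, then lysed. Phospho-STAT4 (Tyr693) was read by AlphaLISA SureFire. Percent inhibition versus the vehicle-plus-trigger signal was fitted by sigmoidal nonlinear regression to give IC50, averaged over experiments.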

[2] = target: T1, Recombinant human JAK2 (catalytic domain, amino acids 808-1132) (Homo sapiens, UniProt O60674); assay: JAK2 inhibition assay; format: biochemical; conditions: read-out: JAK2 potency IC50; note: 0.7 µM ATP
T1 construct: catalytic domain, amino acids 808-1132

[3] = test system: IFNα activation of STAT1 in PBMC; assay: IFNα activation of STAT1 in PBMC; format: cell-based; conditions: Homo sapiens; IFNα activation of STAT1 in PBMC; average IC50; read-out: IFNα signaling inhibitory potency IC50
Method in brief: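 Human PBMC, with red cells lysed by NH4Cl, were pre-treated with compound for 30 min at 37 °C and 5% CO2. They were then stimulated for 30 min with recombinant human IFNα at 5 ng/mL final.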

[4] = target: T2, Recombinant human TYK2 catalytic domain (amino acids 871-1187) (Homo sapiens, UniProt P29597); assay: TYK2 radioactive assay polyGT substrate; format: biochemical; note: 0.1 µM ATP
T2 construct: catalytic domain (amino acids 871-1187)
T2 sequence (P29597 871-1187): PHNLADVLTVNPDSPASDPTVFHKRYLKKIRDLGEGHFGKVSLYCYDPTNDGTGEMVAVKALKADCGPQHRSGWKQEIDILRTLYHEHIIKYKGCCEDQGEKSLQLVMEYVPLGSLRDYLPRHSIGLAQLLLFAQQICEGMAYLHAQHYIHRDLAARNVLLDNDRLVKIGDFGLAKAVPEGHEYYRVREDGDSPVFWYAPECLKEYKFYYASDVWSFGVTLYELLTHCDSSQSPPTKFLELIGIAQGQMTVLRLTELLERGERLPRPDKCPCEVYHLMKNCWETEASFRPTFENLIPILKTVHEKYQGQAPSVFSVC
Method in brief: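 Reaction at 30° C. for 120 min, ended with 150 mM phosphoric acid, washed, counted; percent inhibition scaled between vehicle and 10 μM staurosporine cpm.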

T1 sequence (O60674 808-1132): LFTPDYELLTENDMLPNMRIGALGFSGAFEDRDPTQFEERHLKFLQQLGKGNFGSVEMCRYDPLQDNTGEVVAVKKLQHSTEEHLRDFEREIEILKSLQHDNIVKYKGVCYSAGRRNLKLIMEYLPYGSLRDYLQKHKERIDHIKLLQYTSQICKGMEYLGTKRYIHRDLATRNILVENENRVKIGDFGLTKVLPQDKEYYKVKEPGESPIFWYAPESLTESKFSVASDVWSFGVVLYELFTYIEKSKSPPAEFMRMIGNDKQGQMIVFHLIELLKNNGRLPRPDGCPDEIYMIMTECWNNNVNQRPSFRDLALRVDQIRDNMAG

Structure (SMILES)	IC50 [1] [nM]	IC50 [2] [nM]	IC50 [3] [nM]	IC50 [4] [nM]
Cc1cc(C#N)ncc1Nc1cc(Nc2ccc(C(=O)N(C)C)cn2)c2ncn(C)c2n1 [Compound 67, 6-[[5-[(6-cyano-4-methyl-3-pyridyl)amino]-3-methyl-imidazo[4,5-b]pyridin-7-yl]amino]-N,N-dimethyl-pyridine-3-carboxamide]	54.1	28.2	51	3.38
Cn1cnc2c(Nc3ccc(S(C)(=O)=O)cn3)cc(NC(C3CC3)C(F)(F)F)nc21 (stereo not drawn) [Compound 92, N5-(1-cyclopropyl-2,2,2-trifluoro-ethyl)-3-methyl-N7-(5-methylsulfonyl-2-pyridyl)imidazo[4,5-b]pyridine-5,7-diamine]	–	1.17	67	1
Cc1cc(C(F)(F)F)ncc1Oc1cc(Nc2cc(N)ncn2)c2ncn(C)c2n1 [Compound 1, N-[3-Methyl-5-(4-methyl-6-trifluoromethyl-pyridin-3-yloxy)-3H-imidazo[4,5-b]pyridin-7-yl]-pyrimidine-4,6-diamine]	111	67.3	85.5	10.1
Cc1cc(C#N)ncc1Oc1cc(Nc2ccc(S(=O)(=O)C3CC3)cc2)c2ncn(C)c2n1 [Compound 69, 5-[7-(4-cyclopropylsulfonylanilino)-3-methyl-imidazo[4,5-b]pyridin-5-yl]oxy-4-methyl-pyridine-2-carbonitrile]	42.8	70	90	6.07
CC(C)C(Nc1cc(Nc2cc(N)ncn2)c2ncn(C)c2n1)C(F)(F)F (stereo not drawn) [Compound 93, N7-(6-aminopyrimidin-4-yl)-3-methyl-N5-[2-methyl-1-(trifluoromethyl)propyl)imidazo[4,5-b]pyridine-5,7-diamine]	25.4	16.4	65	4.99
Cc1cc(C#N)ncc1N(c1cc(Nc2cc(N)ncn2)c2ncn(C)c2n1)C1CC1 [Compound 88, 5-[[7-[(6-aminopyrimidin-4-yl)amino]-3-methyl-imidazo[4,5-b]pyridin-5-yl]-cyclopropyl-amino]-4-methyl-pyridine-2-carbonitrile]	22	1.42	14	0.52
Cc1cc(C#N)ncc1Oc1cc(Nc2ccc(S(=O)(=O)C(F)F)cc2)c2ncn(C)c2n1 [Compound 68, 5-[7-[4-(difluoromethylsulfonyl)anilino]-3-methyl-imidazo[4,5-b]pyridin-5-yl]oxy-4-methyl-pyridine-2-carbonitrile]	122	175	128	15.7
